Data as given in patent US4024121A, “(Pyro)-Glu-His-Trp-D-Ser-Tyr-D-Leu-Leu-Arg-Pro-NHR and intermediates” (priority 1976, dated 1977).

What was measured:
[1] = system: LH-RH activity; test: LH-RH activity compared with the natural hormone
[2] = system: LH-release; test: LH-release in rats after subcutaneous injection (procedure of Arimura et al.); assay type: in vivo; conditions: 50 ng subcutaneously
[3] = system: LH-RH activity; conditions: literature reports; cited from earlier work

## CC(C)C[C@H](NC(=O)CNC(=O)[C@H](Cc1ccc(O)cc1)NC(=O)[C@@H](CO)NC(=O)[C@H](Cc1c[nH]c2ccccc12)NC(=O)[C@H](Cc1c[nH]cn1)NC(=O)[C@@H]1CCC(=O)N1)C(=O)N[C@@H](CCCNC(=N)N)C(=O)N1CCC[C@H]1C(=O)NCC(N)=O [[D-Ser^4]-LH-RH]
[1]
  LH-RH activity relative to the natural hormone: less than 5%

## CC(C)C[C@H](NC(=O)CNC(=O)[C@H](Cc1ccc(O)cc1)NC(=O)[C@H](CO)NC(=O)[C@H](Cc1c[nH]c2ccccc12)NC(=O)[C@H](Cc1c[nH]cn1)NC(=O)[C@@H]1CCC(=O)N1)C(=O)N[C@@H](CCCNC(=N)N)C(=O)N1CCC[C@H]1C(=O)NCC(N)=O [LH-RH, (pyro)-Glu-His-Trp-Ser-Tyr-Gly-Leu-Arg-Pro-Gly-NH2]
[2]
  duration of effect of the injection (LH release): no effects of the injection are observed after one hour
  time at which peak activity (LH release) is reached after injection: ~15 min

## [D-Ala^6 ]-LH-RH
[3]
  activity compared with LH-RH: more active than LH-RH
